The test system of one data set is HT-29 cells. Nature of the data set: alamarBlue cytotoxicity assay, HT-29. It counts as cell-based. The conditions noted are these: Homo sapiens; HT-29, alamarBlue, 72 h. The protocol: (§1) Cytotoxicity Assays. Cell culture cytotoxicity assays were performed using the. alamarBlue method, as described by Ahmed et al., J. Immun. Methods 1994, 170, 211-224, which is incorporated herein by reference. Briefly, aliquots of 100 μL of cell suspension (1.0-2.5×10^3 cells) was placed in 96-well microtiter plates in an atmosphere of 5% CO2 at 37° C. After 24 hours, 100 μL of culture medium and 2 μL of compound in vehicle (culture media with 40% pyridine) or vehicle alone were added, and the plates incubated an additional 72 hours. The final pyridine concentration in all cases was 0.4%; at this pyridine concentration there was no affect on the growth of cells compared to cells in culture media without added pyridine. […] After the culture media had been removed from each well, 200 μL of fresh media and 20 μL of 90% alamarBlue reagent were added, followed by an additional 6 h incubation. The fluorescent intensity was measured using a Spectrafluor Plus plate reader with excitation at 530 nm and emission at 590 nm. Results are reported as IC50 values, the average concentration required to produce a decrease of fluorescent intensity of 50% relative to vehicle-treated controls in two separate determinations.

Another data set deals with MDA-231. The data set is described as follows: alamarBlue cytotoxicity assay, MDA-231. It counts as cell-based. The conditions noted are these: Homo sapiens, MDA-MB-231; MDA-231, alamarBlue. The protocol:
as §1
In general terms: The colour change of resazurin is a common sign of viable cells or microbes.

In another data set the test system is SKBR3. The data set is described as follows: alamarBlue cytotoxicity assay, SKBR3. It is filed as cell-based. Conditions: Homo sapiens, SK-BR-3. The protocol:
as §1

The next data set relates to A549. The data set is described as follows: alamarBlue cytotoxicity assay, A549. It counts as cell-based. Conditions: Homo sapiens. The procedure: as §1
Another data set has as its system SK-N-D7. The data set is described as follows: alamarBlue cytotoxicity assay, SK-N-D7. It is filed as cell-based. The procedure: as §1
The test system of data set [1] is IMR-32 neuroblastoma cell line. The data set is described as follows: alamarBlue cytotoxicity assay, IMR-32. It counts as cell-based. Conditions: Homo sapiens. The protocol: as §1
The test system of data set [2] is NGP neuroblastoma cell line. Nature of the data set: alamarBlue cytotoxicity assay, NGP. It counts as cell-based. The procedure: as §1
The nature of data set [3]: alamarBlue cytotoxicity, range over four cell lines. It counts as cell-based. Conditions: human. The protocol:
as §1, with “hours.” for “hours. The final pyridine concentration in all cases was 0.4%; at this pyridine concentration there was no affect on the growth of cells compared to cells in culture media without added pyridine.”, “nm.” for “nm. Results are reported as IC50 values, the average concentration required to produce a decrease of fluorescent intensity of 50% relative to vehicle-treated controls in two separate determinations.”

Data set [4] is described as follows: alamarBlue cytotoxicity, range over three cell lines. The conditions noted are these: human; range of concentrations required to inhibit growth of MCF-7, HT-29, and PC-3 cells by 50%. It counts as cell-based. The protocol:
as §1

Data set [5] concerns Staphylococcus aureus ATCC 29213. Nature of the data set: Antimicrobial bioassay, S. aureus. It is filed as cell-based. The conditions noted are these: Staphylcoccus aureus, concentrations up to 50 μg/mL. The protocol:
Antimicrobial Bioassay: Staphylococcus aureus ATCC 29213 and methicillin-resistant S. aureus ATCC 43300 (MRS) were obtained from the American Type Culture Collection (Rockville, Md.) and stored on agar slants at 4° C. until needed. Susceptibility testing was performed using a modified version of the NCCLS methods: “Methods for Dilution Antimicrobial Susceptibility Tests for Bacteria that Grow Aerobically,” M7-A4, Vol. 17, No. 2, NCCLS, (1997) and “Reference Method for Broth Dilution Antifungal Susceptibility Testing of Yeasts; Approved Standard,” M27-A, Vol. 17, No. 9, NCCLS, (1997), both of which are incorporated herein by reference. Microorganisms were subcultured prior to the assay by suspending cells from the slant in Eugon broth (BBL, Maryland) and incubating for 24 hours at 37° C. Inocula were prepared by diluting the subcultured organism in its incubation broth after comparison to the 0.5 McFarland Standard (a BaSO4 suspension) to afford final inocula ranges of S. aureus: 1.0-5.0×10^5 and MRS: 0.2-6.0×10^5 CFU/ml. Test compounds were dissolved in DMSO, serially-diluted using normal saline, and transferred in duplicate to 96 well flat-bottomed microtiter plates. The microbial inocula were added to the samples to achieve a final volume of 200 μl and final compound concentrations starting with 50 μg/ml. Drug [Ciprofloxacin (ICN Biomedicals, Ohio)] as well as growth and blank (media only) controls were added to each test plate. Plates were read at 630 nm using the EL-340 Biokinetics Reader (Bio-Tek Instruments, Vermont) prior to and after incubation at 37° C. for 24 hours. Percent growth was calculated and plotted versus concentration to afford the IC50, or sample concentration that affords 50% growth of the organism relative to controls.

Another data set relates to Supercoiled ΦX174 DNA. The data set is described as follows: Cleavage of supercoiled DNA, agarose gel electrophoresis. It is filed as biochemical. The conditions noted are these: 37° C. The procedure: Supercoiled Φ[…] DNA (50 μM) was incubated for 24 hrs in pH 8 Tris buffer (10 mM) at 37° C. with UK-1 (15-25 μM), H2O2 (5 μM-5 mM), or NiCl2 (15-25 μM), or a combination of these agents. Agarose gel electrophoresis was carried out to resolve the DNA products. […] There was an increase in the proportion of nicked, relaxed DNA product in the presence of an oxidant (e.g., H2O2), but no linear DNA that would indicate double-stranded DNA cleavage. […] FIG. 5 depicts cleavage of supercoiled DNA by UK-1 in the presence of oxidizing agents and metal ions. Supercoiled Φ[…] DNA (50 μM bp) was incubated with UK-1 (23 μM), NiCl2 (23 μM), H2O2 (5 mM), or combinations of these agents at 37° C. for 24 h and the DNA products subjected to agarose gel electrophoresis with ethidium bromide staining. Lanes: C, untreated supercoiled DNA; 1, DNA+UK-1; 2, DNA+NiCl2; 3, DNA+H2O2; 4, DNA+UK-1+NiCl2; 5, DNA+UK-1+H2O2; 6, DNA+UK-1+NiCl2+H2O2; 7, DNA+NiCl2+H2O2.

A further data set deals with yeast, or fungi. Conditions: yeast, or fungi, concentrations as large as 250 μM; cited from earlier work.

pIC50: −log10 of the molar value.

For `COC(=O)c1cccc2oc(-c3cccc4oc(-c5ccccc5O)nc34)nc12` [UK-1], the pIC50 (in general, the negative decadic logarithm of the IC50, by convention in mol/L) in the data set with HT-29 cells is 4.19; with MDA-231, 6.30; with SKBR3, 7.00; with A549, 5.72; in the data set on SK-N-D7, 6.77; in data set [1] (IMR-32, IMR-32, alamarBlue), 7.22. The pIC50 in [1] (IMR-32, IMR-32, bound stated in text) was above 7.00; in data set [2] (alamarBlue) it was 7.70; in data set [2] (bound stated), above 7.00. The IC50 at 72 h in data set [3] and in data set [4] was 320 to 65000 nM throughout. In addition, the antibacterial effect result in data set [5] was “no indication of any antibacterial effect”. Further, the DNA cleavage entry in the data set with Supercoiled ΦX174 DNA (UK-1 and an oxidant (H2O2), 24 hrs) is reported as “significantly more DNA cleavage”; in the data set with Supercoiled ΦX174 DNA (UK-1 only, 24 hrs, pH 8 Tris buffer), “no evidence of DNA cleavage”; with Supercoiled ΦX174 DNA (combination of UK-1, H2O2, and NiCl2, 24 hrs), “particularly active in inducing DNA cleavage”. The growth inhibition result in the data set on yeast, or fungi was “does not inhibit the growth”.

Values taken from US7294643B2, “UK-1 analogues: methods of preparation and use” (Board of Regents, The University of Texas System, priority 2002, dated 2007).
